# Patent US20110231103A1, “METHODS FOR DETERMINING MOLECULAR PHARMACOLOGY USING LABEL-FREE INTEGRATIVE PHARMACOLOGY” (priority 2010, published 2011)
# Assays:
# [1] = test system: A431 cells; assay: DMR primary profiles of known GPCR agonists in A431 cells (receptor panning, cluster analysis); type: cell-based, human; settings: each agonist at 10 micromolar, max-min of 40 picometer cutoff
# Experimental: (§1) Cells were typically grown using ˜1 to 2×10^4 cells per well at passage 3 to 15 suspended in 50 μl of the corresponding culture medium in the biosensor microplate, and were cultured at 37° C. under air/5% CO2 for ˜1 day. Except for A431 cells which underwent one day (at least 14 hours) culture followed by one day (at least 14 hours) starvation in serum free medium, all other cells were directly assayed without starvation. The confluency for all cells at the time of assays was ˜95% to 100%.
# An Epic® beta version wavelength interrogation system (Corning Inc., Corning, N.Y.) was used for whole cell sensing. This system consists of a temperature-control unit, an optical detection unit, and an on-board liquid handling unit with robotics. The detection unit is centered on integrated fiber optics, and enables kinetic measures of cellular responses with a time interval of ˜15 sec.
# (§2) For biosensor cellular assays, molecule solutions were made by diluting the stored concentrated solutions with the HBSS (1× Hanks balanced salt solution, plus 20 mM Hepes, pH 7.1), and transferred into a 384well polypropylene molecule storage plate to prepare a molecule source plate. Both molecule and marker source plates were made separately when a two-step assay was performed. In parallel, the cells were washed twice with the HBSS and maintained in 30 μl of the HBSS to prepare a cell assay plate. Both the cell assay plate and the molecule and marker source plate(s) were then incubated in the hotel of the reader system. After ˜1 hr of incubation the baseline wavelengths of all biosensors in the cell assay microplate were recorded and normalized to zero. Afterwards, a 2 to 10 minute continuous recording was carried out to establish a baseline, and to ensure that the cells reached a steady state. Cellular responses were then triggered by pipetting 10 μl of the marker solutions into the cell assay plate using the on-board liquid handler.
# All studies were carried out at a controlled temperature (28° C.). At least two independent sets of experiments, each with at least three replicates, were performed. […] A typical DMR signal of cells, as measured using Epic system, is a real time kinetic response which consists a baseline pre-stimulation (often normalized to zero), and a cellular response post stimulation.
# To pan endogenous G protein-coupled receptors (GPCRs) that are functional in label-free biosensor cellular assays, a library of known GPCR agonists was made. A431 cells were grown to monolayer on the Epic® 384well biosensor cell culture compatible microplates and subject to overnight starvation. After replacing the cell medium with 1×HBSS buffer and reaching equilibrium within the Epic® system, the cells were stimulated with known GPCR agonists, each at 10 micromolar. The known adenylate cyclase activator forskolin was also included as a positive control for the cAMP-PKA pathway.
# Pattern recognition and pattern matching can be used to visualize their relations. However, when the numbers of molecule biosensor primary profiles increase dramatically, it becomes more difficult to use conventional pattern recognition methods, such as supervised learning, to study the relations of the molecule primary indices. Clustering analysis has been widely and successfully used in gene expression and protein network analysis which often deals with large datasets. Thus, clustering analysis and its parameters were identified herein to categorize the molecule primary indices. Both Hierarchical and k-Means clustering methods were examined. […] Here a max-min of 40 picometer was used as a cutoff to filter the original data. This heat map was generated using the real responses of each GPCR agonist at a 1-min time interval post stimulation.
# [2] = test system: 15 marker/4 cell line panel (A549, A431, HT29, HepG2 cells); assay: Biosensor modulation indices against a 15 marker/4 cell line panel, Hierarchical Euclidean cluster analysis; type: cell-based; settings: 15 markers at EC100 in A549, A431, HT29, HepG2 cells; library of ~2000 compounds
# Experimental: as §1, §2
# To study the influence of molecules on a marker-induced response, a second stimulation with the marker at a fixed dose (typically at EC80 or EC 100) was applied. The resonant wavelengths of all biosensors in the microplate were normalized again to establish a second baseline, right before the second stimulation. The two stimulations were usually separated by ˜1 hr.
# To further explore the potential of cluster analysis for label-free integrative pharmacology, a library of ˜2000 compounds were subject to label-free integrative pharmacology analysis against a 15 marker/4 cell line panel. The cell/marker panel consists of the A549 cell (the mitochondria KATP opener pinacidil, the TLR3 agonist poly(I:C), the protein kinase C activator PMA, the adenylate cyclase activator forskolin, the PAR2 agonist SLIGKV, and the histamine H1 receptor agonist histamine), A431 cells (the β2AR agonist epinephrine, the EGFR agonist EGF, the GPR109A agonist nicotinic acid, and the histamine H1 receptor agonist histamine), HT29 cells (the EGFR/HER2 agonist EGF, the neurotensin receptor NTS1/NTS3 agonist neurotensin, the IGF1 receptor IGF1, and the hERG activator mallotoxin), and the HepG2 cell (the TL9 agonist ODN2006). All molecules in the library were screened in four cell lines to produce a library of biosensor primary indices. In addition, all molecules in the library were also screened in the four cell lines against each respective marker at EC100 to produce a library of biosensor modulation indices. The modulation indices were generated by normalizing the marker DMR signal in the presence of a molecule to the marker DMR in the absence of a molecule. For each marker, one or two specific DMR events were used for normalization. For A549 cells, it is pinacidil (the N-DMR at 30 min; pinacidil), Poly(I:C) (the P-DMR at 50 min, poly(I:C)), PMA (the P-DMR at 50 min, PMA), SLIGKV (the P-DMR at 20 min, SLIGKV), forskolin (the P-DMR at 50 min, Forskolin), Histamine (the P-DMR at 10 min, His1; the P-DMR at 30 min, His2) (the bolded name was indicated in FIG. 6, the same is for the below). For A431 cells, it is epinephrine (the P-DMR at 50 min, Epi), nicotinic acid (the N-DMR at 3 min, NA), EGF (the P-DMR at 5 min, EGF1; the N-DMR at 40 min, EGF2), and histamine (the P-DMR at 3 min, His3).
# [3] = molecular target: T1, β2-AR (Homo sapiens, UniProt P07550); assay: DMR assays of a panel of β2-AR ligands in quiescent A431 cells, multi-parameter and cluster analysis; type: cell-based; settings: for heat map classification of β2-AR agonist pharmacology based on DMR parameters: DMR parameters normalized to the epinephrine response; for saturating concentration for the DMR signal: FIG. 7
# T1 construct: All of these receptors were endogenously expressed in A431 cells, as confirmed by quantitative RT-PCR; endogenous in cells; host or cells: quiescent (serum-starved) A431 cells
# T1 sequence (P07550 whole entry): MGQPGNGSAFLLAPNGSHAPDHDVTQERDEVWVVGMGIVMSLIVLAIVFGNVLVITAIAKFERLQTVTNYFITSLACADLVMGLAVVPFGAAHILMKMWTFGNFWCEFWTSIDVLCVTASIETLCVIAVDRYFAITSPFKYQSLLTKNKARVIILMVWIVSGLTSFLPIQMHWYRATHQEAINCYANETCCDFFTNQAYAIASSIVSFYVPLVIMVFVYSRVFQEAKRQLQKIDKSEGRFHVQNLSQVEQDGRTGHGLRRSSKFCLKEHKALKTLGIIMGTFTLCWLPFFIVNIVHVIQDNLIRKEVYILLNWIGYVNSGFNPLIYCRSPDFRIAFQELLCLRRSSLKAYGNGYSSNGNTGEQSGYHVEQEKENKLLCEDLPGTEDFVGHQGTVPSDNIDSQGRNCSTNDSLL
# Experimental: as §1, §2
# Label-free receptor assays allow a greater array of changes in the receptor to be detected. […] The heat map was generated using the Euclidean hierarchical cluster analysis, after all DMR parameters were normalized to the epinephrine response.
Structure (SMILES),"cluster of the agonist-induced primary DMR signal (two dimensional Hierarchical clustering, heat map) [1]",node cluster by biosensor modulation index (similarity to known anti-histamines) [2],heat map classification of β2-AR agonist pharmacology based on DMR parameters [3],further results
Nc1ncnc2c1ncn2[C@@H]1O[C@H](COP(=O)(O)OP(=O)(O)OP(=O)(O)O)[C@@H](O)[C@H]1O [ATP],belong to the same cluster,,,
OC[C@H]1O[C@@H](n2cnc3c(NC4CCCC4)nc(Cl)nc32)[C@H](O)[C@@H]1O [CCPA],belong to the same cluster,,,
CCNC(=O)[C@H]1O[C@@H](n2cnc3c(N)nc(NCCc4ccc(CCC(=O)O)cc4)nc32)[C@H](O)[C@@H]1O [CGS21680],belong to the same cluster,,,
CN(C)CCCN1c2ccccc2Sc2ccc(Cl)cc21 [Chlorpromazine],,specific node cluster that consists of 8 compounds,,
CNC(=O)[C@H]1O[C@@H](n2cnc3c(NCc4cccc(I)c4)ncnc32)[C@H](O)[C@@H]1O [IB-MECA],belong to the same cluster,,,
O=c1cc(N2CCNCC2)oc2c(-c3ccccc3)cccc12 [LY303511],,can also be a histamine H1R or a H1R pathway antagonist,,
O=c1ccn([C@@H]2O[C@H](COP(=O)(O)OP(=O)(O)OP(=O)(O)O)[C@@H](O)[C@H]2O)c(=O)[nH]1 [UTP],belong to the same cluster,,,
Nc1ncnc2c1ncn2[C@@H]1O[C@H](CO)[C@@H](O)[C@H]1O [adenosine],belong to the same cluster,,,
Oc1ccccc1O [catechol],,,between the second and third group,amplitudes of the DMR signal [3]: smaller amplitudes; kinetics for the P-DMR event [3]: faster kinetics; transition time of the DMR signal [3]: slightly slower transition time; saturating concentration for the DMR signal [3]: 500 µM
NCCc1ccc(O)c(O)c1 [dopamine],,,partial agonists,saturating concentration for the DMR signal [3]: 32 µM
CNC[C@H](O)c1ccc(O)c(O)c1 [epinephrine],,,full agonists and strong partial agonists,amplitudes of the DMR signal [3]: maximum amplitudes; kinetics for the P-DMR event [3]: slow kinetics; transition time of the DMR signal [3]: fast transition time; saturating concentration for the DMR signal [3]: 0.008 µM
Fc1ccc(C(c2ccc(F)cc2)N2CCN(C/C=C/c3ccccc3)CC2)cc1 [flunarizine],,specific node cluster that consists of 8 compounds,,
CNCC(O)c1ccccc1 (centres unmarked) [halostachine],,,partial agonists,amplitudes of the DMR signal [3]: smaller amplitudes; kinetics for the P-DMR event [3]: faster kinetics; transition time of the DMR signal [3]: slightly slower transition time
CN1CCC(=C2c3ccccc3CC(=O)c3sccc32)CC1 [ketotifen],,specific node cluster that consists of 8 compounds,,
C[C@@H]1CN([C@H]2CC[C@](C#N)(c3ccc(F)cc3)CC2)CC[C@]1(C(=O)O)c1ccccc1 [levocabastine],,specific node cluster that consists of 8 compounds,,
NC[C@H](O)c1ccc(O)c(O)c1 [norepinephrine],,,full agonists and strong partial agonists,saturating concentration for the DMR signal [3]: 0.1 µM
CC(C)NCC(O)COc1cccc2[nH]ccc12 (centres unmarked) [pindolol],,,beta-blockers with weak partial agonism activity,
Cc1nc2n(c(=O)c1CCN1CCC(c3noc4cc(F)ccc34)CC1)CCCC2 [risperidone],,specific node cluster that consists of 8 compounds,,
O=C(NCCNCC(O)COc1ccc(O)cc1)N1CCOCC1 (centres unmarked) [xamoterol],,,between the second and third group,
